# In PMC3731216, “Origin and Functional Diversification of an Amphibian Defense Peptide Arsenal” (PLoS Genetics, 2013):
# Where a SMILES comes first, the peptide text is derived from it.
# Columns and labels:
# [1] = Hydrophobicity as % TFA/AcN solvent at HPLC elution time; assay type: physicochemical; settings: chromatographic; expressed as % TFA/AcN solvent at HPLC elution time
# [2] = test system: Escherichia coli (ATCC 25922); assay: MIC assay in liquid medium (twofold dilutions) against E. coli; assay type: cell-based; settings: lowest concentration in twofold dilutions with no growth; 5×10^5 CFU/ml, Müller-Hinton broth, 37°C, 18 hours, read by eye; duplicate or triplicate, min–max if variable
# Protocol: (§1) Seventeen predicted and recovered peptides were de novo synthesized using solid-phase technology by CASLO Laboratory ApS (Lyngby, Denmark) and delivered as HPLC-purified (>95%) trifluoracetate (TFA) salts. The peptide salts were stored as 5.12 mM stock solutions in 0.01% (V/V) acetic acid/0.2% (m/V) BSA. Peptides were tested against Escherichia coli (ATCC 25922) and Pseudomonas aeruginosa (ATCC 15692), Staphylococcus aureus (ATCC 25923), Micrococcus luteus, Saccharomyces cerevisiae, a protozoan parasite (Trypanosoma brucei brucei), mouse (Mus musculus) red blood cells and mouse spleen tissue cultures (containing 50–60% B-cells, ∼25–30% T-cells, and 5% myeloid cells). All assays were performed in duplicate or triplicate.
# (§2) Activity against the bacteria and fungus was measured by assessing the lowest peptide concentration in a series of twofold dilutions at which no growth was detected (known as the minimum inhibitory concentration, MIC). Bacterial and yeast cultures (5×10^5 colony forming units/ml) were prepared in Müller-Hinton (MH) broth and Luria-Bertani (LB) broth respectively and transferred to serial dilutions of peptides ranging from 512 or 256 µM down to 1 or 0.5 µM in 96-well polypropylene plates. After incubation at 37°C (bacteria) or 30°C (S. cerevisiae) for 18 hours, growth of the cultures was checked by eye. In addition to MIC, we determined minimum microbicidal concentrations (MMC) by inoculating samples of the MIC assays on agar plates lacking peptides and checking for overnight growth. In all cases, MIC and MMC were identical.
# mouse red blood cells = assay: Hemolysis of mouse red blood cells (HC50); assay type: cell-based; settings: lowest concentration causing at least 50% hemolysis; mouse blood diluted 1/100 in RPMI, 37°C, 30 minutes, OD 550 nm; 100% = 1% Tween-20
# Protocol: as §1
# Activity against mouse red blood cells was examined by assessing the lowest peptide concentration in a series of twofold dilutions causing at least 50% hemolysis (HC50). Briefly, heparinized blood was obtained by cardiac puncture of mice euthanized via CO2. The blood was diluted 1/100 in RPMI and added to polypropylene 96-well plates containing the serial peptide dilutions to obtain total volumes of 100 µl. The plates were incubated at 37°C in a humidified atmosphere for 30 minutes and centrifuged at 1400 rpm for 2 minutes to pellet intact red blood cells allowing visual observation of hemolysis. Supernatants were subsequently transferred to 96-well flat-bottom plates to allow spectrophotometry using an ELISA reader (OD measured at 550 nm). The percentage of hemolyis for each peptide concentration was calculated as 100×(ODobs−OD0%)/(OD100%−OD0%), where ODobs is the OD measured for the peptide concentration, OD0% is the average OD in the absence of peptides (0% hemolysis), and OD100% is the average OD in the presence of 1% Tween-20 (100% hemolysis).
# [3] = test system: Trypanosoma brucei brucei AnTat1.1 bloodstream parasites; assay: Trypanolytic activity (LC95, 30 minutes); assay type: cell-based; settings: lowest concentration killing at least 95% of parasites after 30 minutes; PSG buffer with 5% FCS, light microscope count; min–max of repeated tests
# Protocol: as §1
# Activity against T. brucei parasites was assessed as the minimum concentration in a series of twofold dilutions required to kill 95% of parasites in 30 minutes (LC95). Frozen stabilates of Trypanosoma brucei brucei AnTat1.1 bloodstream parasites were expanded by infection of C57Black/6 mice (Janvier). Mice with systemic parasitaemia (typically 4–5 days post infection) were exsanguinated and parasites were purified from heparinized blood by DEAE-cellulose (DE52, Whatman) chromatography. Collected parasites were washed twice with Phosphate-Saline-Glucose buffer (PSG-buffer) and enumerated microscopically using a Bürker hematocytometer. The DEAE52-purified parasites (stock: 10^6 parasites/ml PSG buffer containing 5% FCS) were added to polypropylene 96-well plates containing the serial peptide dilutions to obtain total volumes of 200 µl. After incubation for 30 minutes, trypanolytic activity was assessed using a light microscope by calculating the percentage of dead parasites in a minimum of 200 counted cells.
# [4] = test system: Staphylococcus aureus (ATCC 25923); assay: MIC assay in liquid medium (twofold dilutions) against S. aureus; assay type: cell-based; settings: lowest concentration in twofold dilutions with no growth; 5×10^5 CFU/ml, Müller-Hinton broth, 37°C, 18 hours, read by eye; duplicate or triplicate, min–max if variable
# Protocol: as §1, §2
# Saccharomyces cerevisiae = assay: MIC assay in liquid medium (twofold dilutions) against S. cerevisiae; assay type: cell-based; settings: lowest concentration in twofold dilutions with no growth; 5×10^5 CFU/ml, Luria-Bertani broth, 30°C, 18 hours, read by eye; duplicate or triplicate, min–max if variable
# Protocol: as §1, §2
# Micrococcus luteus = assay: MIC assay in liquid medium (twofold dilutions) against M. luteus; assay type: cell-based; settings: lowest concentration in twofold dilutions with no growth; 5×10^5 CFU/ml, Müller-Hinton broth, 37°C, 18 hours, read by eye; duplicate or triplicate, min–max if variable
# Protocol: as §1, §2
# [5] = test system: T-lymphocytes (naive C57Black/6 splenocytes); assay: Inhibition of Concanavalin A-induced T-cell proliferation in spleen cell cultures; assay type: cell-based, Mus musculus; settings: lowest concentration causing at least 50% inhibition of Concanavalin A-induced T-cell proliferation; 2×10^5 splenocytes, 24 h + 18 h [3H]thymidine, 37°C; min–max if variable
# Protocol: as §1
# Activity against T-lymphocytes was assessed as the lowest peptide concentration in a series of twofold dilutions causing at least 50% inhibition of Concanavalin A-induced T-cell proliferation (IC50). Solutions containin 2×10^5 naive C57Black/6 splenocytes in the presence of 2.5 µg Concanavalin A were added to polypropylene 96-well plates containing the serial peptide dilutions to obtain total volumes of 100 µl. After incubation for 24 hours at 37°C in a humidified atmosphere, the cells were pulsed with [^3H]thymidine and incubated for an additional 18 hours. The amount of [^3H]thymidine incorporation was assessed by a β-counter as a measure of cell proliferation and the percentage of proliferation inhibition for each peptide concentration was calculated as 100×(1−(Tobs/T100%)), where Tobs is the [^3H]thymidine level measured for the peptide concentration, and T100% is the [^3H]thymidine level measured for Concanavalin-A-induced cell proliferation in the absence of peptide (representing 100% proliferation).
# [6] = test system: Pseudomonas aeruginosa (ATCC 15692); assay: MIC assay in liquid medium (twofold dilutions) against P. aeruginosa; assay type: cell-based; settings: lowest concentration in twofold dilutions with no growth; 5×10^5 CFU/ml, Müller-Hinton broth, 37°C, 18 hours, read by eye; duplicate or triplicate, min–max if variable
# Protocol: as §1, §2
Compound,Hydrophobicity [1],MIC E. coli [2] [µM],HC50 Erythrocytes (mouse red blood cells) [µM],LC95 T. brucei [3] [µM],MIC S. aureus [4] [µM],MIC S. cerevisiae (Saccharomyces cerevisiae) [µM],MIC M. luteus (Micrococcus luteus),IC50 [5] [µM],MIC P. aeruginosa [6] [µM]
CC(C)C[C@H](NC(=O)[C@H](CC(C)C)NC(=O)[C@H](CC(N)=O)NC(=O)[C@H](CO)NC(=O)CNC(=O)[C@@H](NC(=O)[C@H](CCCCN)NC(=O)[C@H](CC(C)C)NC(=O)CNC(=O)[C@@H](NC(=O)[C@H](CCCCN)NC(=O)[C@H](CC(C)C)NC(=O)[C@H](CC(C)C)NC(=O)[C@H](CO)NC(=O)CNC(=O)[C@H](CC(C)C)NC(=O)[C@H](CC(C)C)NC(=O)[C@@H](N)CC(N)=O)[C@@H](C)O)C(C)C)C(N)=O [CPF-St7] (H-NLLGSLLKTGLKVGSNLL-NH2; N-terminus assumed),"45,2 % TFA/AcN solvent",128,256,2 to 64,32,64,2 µM,128,>256
CC[C@H](C)[C@H](NC(=O)[C@H](C)NC(=O)[C@H](CCCCN)NC(=O)[C@H](C)NC(=O)[C@H](C)NC(=O)[C@H](CCCCN)NC(=O)CNC(=O)[C@H](Cc1ccccc1)NC(=O)[C@H](C)NC(=O)[C@@H](NC(=O)CNC(=O)[C@H](C)NC(=O)[C@H](CCCCN)NC(=O)[C@@H](NC(=O)[C@H](C)NC(=O)[C@H](CCSC)NC(=O)CN)[C@@H](C)O)[C@@H](C)O)C(=O)N[C@H](C(=O)NCC(=O)N[C@@H](C)C(=O)N[C@@H](C)C(=O)N[C@@H](CC(C)C)C(N)=O)[C@@H](C)CC [PGLa-St2] (H-GMATKAGTAFGKAAKAIIGAAL-NH2; N-terminus assumed),"42,6 % TFA/AcN solvent",16,>256,16 to 32,>256,64,2 µM,64,128
CC(C)C[C@H](NC(=O)CNC(=O)[C@H](C)NC(=O)[C@@H](NC(=O)[C@H](CC(N)=O)NC(=O)[C@H](CO)NC(=O)[C@H](CC(C)C)NC(=O)[C@H](CC(C)C)NC(=O)CN)C(C)C)C(=O)N[C@@H](CC(C)C)C(=O)N[C@@H](CCCCN)C(=O)N[C@@H](CCC(N)=O)C(=O)N[C@@H](Cc1ccccc1)C(=O)N[C@@H](C)C(=O)N[C@@H](CCCCN)C(=O)NCC(=O)NCC(=O)N[C@H](C(=O)N[C@@H](CC(N)=O)C(=O)N[C@@H](C)C(=O)N[C@H](C(=O)N[C@@H](CC(C)C)C(=O)N[C@@H](CC(N)=O)C(=O)N1CCC[C@H]1C(=O)N[C@@H](CCCCN)C(=O)O)C(C)C)C(C)C [XPF-St7] (H-GLLSNVAGLLKQFAKGGVNAVLNPK-OH),,8,>256,,128,32,1 µM,16,32
CC[C@H](C)[C@H](NC(=O)[C@H](C)NC(=O)[C@H](CC(N)=O)NC(=O)[C@@H](NC(=O)CNC(=O)CNC(=O)[C@H](CCCCN)NC(=O)[C@H](C)NC(=O)[C@H](Cc1ccccc1)NC(=O)[C@H](CCCCN)NC(=O)[C@H](CCCCN)NC(=O)[C@H](C)NC(=O)[C@H](Cc1ccccc1)NC(=O)[C@H](CC(N)=O)NC(=O)[C@H](C)NC(=O)[C@@H](NC(=O)[C@H](CCCCN)NC(=O)[C@H](CO)NC(=O)[C@H](CCSC)NC(=O)[C@H](Cc1ccccc1)NC(=O)CN)C(C)C)C(C)C)C(=O)N[C@@H](CCSC)C(=O)N[C@@H](CC(N)=O)C(=O)N[C@@H](CCC(N)=O)C(=O)N[C@@H](CCCCN)C(=O)O [XPF-St8] (H-GFMSKVANFAKKFAKGGVNAIMNQK-OH),,1,64,,128,8,"0,5 µM",16,4
CC[C@H](C)[C@H](NC(=O)[C@H](Cc1ccccc1)NC(=O)CNC(=O)[C@H](CCCCN)NC(=O)[C@H](C)NC(=O)[C@H](Cc1ccccc1)NC(=O)[C@H](CCCCN)NC(=O)[C@H](CCCCN)NC(=O)[C@H](C)NC(=O)[C@H](CO)NC(=O)[C@H](Cc1c[nH]cn1)NC(=O)[C@H](C)NC(=O)[C@@H](NC(=O)[C@H](CCC(=O)O)NC(=O)[C@H](CCCCN)NC(=O)[C@H](CC(C)C)NC(=O)CN)C(C)C)C(=O)N[C@@H](CO)C(=O)NCC(=O)N[C@@H](CC(C)C)C(=O)N[C@H](C(=O)NCC(=O)N[C@@H](CO)C(=O)O)[C@@H](C)O [magainin-St1] (H-GLKEVAHSAKKFAKGFISGLTGS-OH),,64,>256,,>256,128,32 µM,> 256,>256
"FIGALLGPLLNLLKa [PFQa-St1, homologue of pFQa encoded by xpf-St7]","55,4 % TFA/AcN solvent",,,,,,,,
"GMATKAGTVLGKVTKAIIGAALa [PGLa-St3, predicted S. tropicalis skin peptide encoded by pgla-St3]","39,2 % TFA/AcN solvent",,,,,,,,
"KLGFENFLVKALKTVMHVPTSPLLa [CPF-St6, predicted S. tropicalis skin peptide encoded by cpf-St6]","35,5 % TFA/AcN solvent",16,256,16 to 256,>256,64,4 µM,32 to 64,>256
"pQGLIGTLTAKQIKKa [levitide-St2, levitide-related peptide encoded by xpf-St5]","35,0 % TFA/AcN solvent",,,,,,,,
"pQGLMGTLISKQMKKa [levitide-St1, levitide-related peptide encoded by xpf-St4]","31,6 % TFA/AcN solvent",,,,,,,,
